Reference: patent publication US8329904B2, “Azacyclic derivatives” (Hoffmann-La Roche Inc., priority 2009, dated 2012)

molecular target: T1, human HSL (Homo sapiens, UniProt Q05469); assay: Human Hormone-Sensitive Lipase (HSL) Enzyme Inhibition Assay; assay type: biochemical; conditions: colorimetric assay, 2,3-dimercapto-1-propanol tributyrate (DMPT) substrate, 37° C. for 20 minutes, absorbance at 405 nm; read-out: HSL hum IC50
T1 construct: overlapping PCR to generate a full length human HSL ORF with a 3′-His6 tag; His6 (C); made in house; host or cells: High 5 insect cells (baculovirus, pFast-BAC)
T1 sequence (Q05469 1-1076): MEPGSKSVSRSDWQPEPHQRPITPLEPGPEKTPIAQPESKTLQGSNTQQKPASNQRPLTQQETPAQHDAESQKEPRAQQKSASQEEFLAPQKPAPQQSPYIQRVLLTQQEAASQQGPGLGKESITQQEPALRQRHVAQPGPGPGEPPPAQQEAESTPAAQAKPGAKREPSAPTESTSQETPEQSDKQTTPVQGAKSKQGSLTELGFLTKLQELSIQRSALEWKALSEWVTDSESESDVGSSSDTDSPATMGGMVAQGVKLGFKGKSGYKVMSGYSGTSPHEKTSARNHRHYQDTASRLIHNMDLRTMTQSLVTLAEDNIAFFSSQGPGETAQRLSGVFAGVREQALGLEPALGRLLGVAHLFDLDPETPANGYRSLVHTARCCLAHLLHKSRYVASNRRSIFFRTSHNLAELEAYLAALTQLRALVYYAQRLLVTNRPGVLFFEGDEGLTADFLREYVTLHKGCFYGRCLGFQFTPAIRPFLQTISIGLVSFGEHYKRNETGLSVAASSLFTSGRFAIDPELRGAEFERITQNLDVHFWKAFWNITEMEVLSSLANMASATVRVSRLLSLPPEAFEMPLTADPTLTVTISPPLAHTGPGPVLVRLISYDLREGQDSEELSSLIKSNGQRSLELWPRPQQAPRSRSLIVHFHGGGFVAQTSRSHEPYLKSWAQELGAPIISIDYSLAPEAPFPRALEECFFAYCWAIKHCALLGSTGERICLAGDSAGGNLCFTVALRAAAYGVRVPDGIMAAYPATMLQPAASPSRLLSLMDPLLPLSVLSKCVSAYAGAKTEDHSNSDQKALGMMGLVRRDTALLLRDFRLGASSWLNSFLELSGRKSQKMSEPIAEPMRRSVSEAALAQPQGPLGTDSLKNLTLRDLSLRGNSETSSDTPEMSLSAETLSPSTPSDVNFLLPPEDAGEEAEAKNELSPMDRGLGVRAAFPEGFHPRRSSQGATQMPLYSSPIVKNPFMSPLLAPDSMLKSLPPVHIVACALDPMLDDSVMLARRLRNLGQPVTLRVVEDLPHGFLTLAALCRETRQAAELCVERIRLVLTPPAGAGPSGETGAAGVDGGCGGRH
Procedure, shortened: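 Colorimetric thioester hydrolysis: compounds in DMSO series mixed with DMPT (1.5 mM) in MOPS pH 7.2 with BSA, then baculovirus-expressed His6-tagged full-length human HSL added, 37° C, 20 min. DTNB plus detergents added, 15 min room temperature, absorbance at 405 nm.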

Row | IC50 | Compound
1 | 200 nM | CC(C)c1cc(CS(=O)(=O)N2CCC3(CCN(c4ccc(OC(F)(F)F)cc4)C3=O)CC2)on1 [Example 233, 8-(3-Isopropyl-isoxazol-5-ylmethanesulfonyl)-2-(4-trifluoromethoxy-phenyl)-2,8-diaza-spiro[4.5]decan-1-one]
2 | 60 nM | O=C1N(c2ccc(OCC(F)(F)F)cc2)CCC12CCN(S(=O)(=O)c1ccccc1)CC2 [Example 26, 8-Benzenesulfonyl-2-[4-(2,2,2-trifluoro-ethoxy)-phenyl]-2,8-diaza-spiro[4.5]decan-1-one]
3 | 20 nM | CC(C)Oc1ccc(N2CCC3(CCN(S(=O)(=O)c4ccccc4OC(F)(F)F)CC3)C2=O)cc1 [Example 87, 2-(4-Isopropoxy-phenyl)-8-(2-trifluoromethoxy-benzenesulfonyl)-2,8-diaza-spiro[4.5]decan-1-one]
4 | 40 nM | CC(C)CS(=O)(=O)N1CCC2(CCN(c3ccc(CC(F)(F)F)cc3)C2=O)CC1 [Example 60, 8-(2-Methyl-propane-1-sulfonyl)-2-[4-(2,2,2-trifluoro-ethyl)-phenyl]-2,8-diaza-spiro[4.5]decan-1-one]
5 | 20 nM | CC(Oc1ccc(N2CCC3(CCN(S(=O)(=O)c4ccccc4)CC3)C2=O)cc1)C(F)(F)F (racemic) [Example 4, (rac)-8-Benzenesulfonyl-2-[4-(2,2,2-trifluoro-1-methyl-ethoxy)-phenyl]-2,8-diaza-piro[4.5]decan-1-one]
6 | 80 nM | CCCc1ccc(N2CCC3(CCN(C(=O)CC(C)(C)C)CC3)C2=O)cc1 [Example 31, 8-(3,3-Dimethyl-butyryl)-2-(4-propyl-phenyl)-2,8-diaza-spiro[4.5]decan-1-one]
7 | 50 nM | O=C1N(c2ccc(OC(F)(F)F)cc2)CCCC12CCN(S(=O)(=O)c1ccccc1)CC2 [Example 9, 9-Benzenesulfonyl-2-(4-trifluoromethoxy-phenyl)-2,9-diaza-spiro[5.5]undecan-1-one]
8 | 110 nM | O=C1N(c2ccc(C3CC3)cc2)CCC12CCN(S(=O)(=O)c1ccccc1OC(F)(F)F)CC2 [Example 82, 2-(4-Cyclopropyl-phenyl)-8-(2-trifluoromethoxy-benzenesulfonyl)-2,8-diaza-spiro[4.5]decan-1-one]
9 | 60 nM | CNc1ncccc1S(=O)(=O)N1CCC2(CCN(c3ccc(OCC(F)(F)F)cc3)C2=O)CC1 [Example 207, 8-(2-Methylamino-pyridine-3-sulfonyl)-2-[4-(2,2,2-trifluoro-ethoxy)-phenyl]-2,8-diaza-spiro[4.5]decan-1-one]
10 | 30 nM | CNc1ncccc1S(=O)(=O)N1CCC2(CCN(c3ccc(OC(F)(F)F)cc3)C2=O)CC1 [Example 189, 8-(2-Methylamino-pyridine-3-sulfonyl)-2-(4-trifluoromethoxy-phenyl)-2,8-diaza-spiro[4.5]decan-1-one]
11 | 50 nM | O=C1N(CCc2cccc(F)c2)CCC12CCN(S(=O)(=O)c1ccccc1Cl)CC2 [Example 243, 8-(2-Chloro-benzenesulfonyl)-2-[2-(3-fluoro-phenyl)-ethyl]-2,8-diaza-spiro[4.5]decan-1-one]
12 | 60 nM | COc1ccc(CCN2CCC3(CCN(S(=O)(=O)c4ccccc4Cl)CC3)C2=O)cc1 [Example 240, 8-(2-Chloro-benzenesulfonyl)-2-[2-(4-methoxy-phenyl)-ethyl]-2,8-diaza-spiro[4.5]decan-1-one]
13 | 740 nM | COCCCOc1ccc(N2CCC3(CCN(S(=O)(=O)CC(C)C)CC3)C2=O)cc1 [Example 107, 2-[4-(3-Methoxy-propoxy)-phenyl]-8-(2-methyl-propane-1-sulfonyl)-2,8-diaza-spiro[4.5]decan-1-one]
14 | 100 nM | O=C1N(CCc2cccc(C(F)(F)F)c2)CCC12CCN(S(=O)(=O)c1ccccc1Cl)CC2 [Example 245, 8-(2-Chloro-benzenesulfonyl)-2-[2-(3-trifluoromethyl-phenyl)-ethyl]-2,8-diaza-spiro[4.5]decan-1-one]
15 | 450 nM | CC(C)CS(=O)(=O)N1CCC2(CCN(c3ccc(C(O)C(F)F)cc3)C2=O)CC1 (stereo not drawn) [Example 177, 2-(4-(2,2-difluoro-1-hydroxyethyl)phenyl)-8-(isobutylsulfonyl)-2,8-diazaspiro[4.5]decan-1-one]
16 | 60 nM | CC(CO)Nc1ncccc1S(=O)(=O)N1CCC2(CCN(c3ccc(OC(F)(F)F)cc3)C2=O)CC1 (stereo not drawn) [Example 193, 8-[2-(2-Hydroxy-1-methyl-ethylamino)-pyridine-3-sulfonyl]-2-(4-trifluoromethoxy-phenyl)-2,8-diaza-spiro[4.5]decan-1-one]
17 | 40 nM | CC(Oc1ccc(N2CCC3(CCN(S(=O)(=O)c4ccccc4C(F)(F)F)CC3)C2=O)cc1)C(F)(F)F (stereo not drawn) [Example 101]
18 | 30 nM | CC(C)(C)c1ccc(N2CCC3(CCN(S(=O)(=O)c4ccccc4)CC3)C2=O)cc1 [Example 3, 8-Benzenesulfonyl-2-(4-tert-butyl-phenyl)-2,8-diaza-spiro[4.5]decan-1-one]
19 | 40 nM | CN(C(=O)N1CCC2(CC1)CCN(c1ccc(OC(F)(F)F)cc1)C2=O)c1cccc(Cl)c1 [Example 302, 1-Oxo-2-(4-trifluoromethoxy-phenyl)-2,8-diaza-spiro[4.5]decane-8-carboxylic acid (3-chloro-phenyl)-methyl-amide]
20 | 220 nM | O=C(CC1CCCC1)N1CCC2(CC1)CCN(c1ccc(C3CC3)cc1)C2=O [Example 37, 8-(2-Cyclopentyl-acetyl)-2-(4-cyclopropyl-phenyl)-2,8-diaza-spiro[4.5]decan-1-one]
21 | 140 nM | O=C1N(c2ccc(C(O)CF)cc2)CCC12CCN(S(=O)(=O)c1ccccc1C(F)(F)F)CC2 (stereo not drawn) [Example 173, 2-(4-(2-fluoro-1-hydroxyethyl)phenyl)-8-(2-(trifluoromethyl)phenylsulfonyl)-2,8-diazaspiro[4.5]decan-1-one]
22 | 220 nM | CC(C)CS(=O)(=O)N1CCC2(CCN(c3ccc(OS(=O)(=O)C4CC4)cc3)C2=O)CC1 [Example 64, Cyclopropanesulfonic acid 4-[8-(2-methyl-propane-1-sulfonyl)-1-oxo-2,8-diaza-spiro[4.5]dec-2-yl]-phenyl ester]
23 | 400 nM | CC(C)NC(=O)N1CCC2(CC1)CCN(c1ccc(OC(F)(F)F)cc1)C2=O [Example 254, 1-Oxo-2-(4-trifluoromethoxy-phenyl)-2,8-diaza-spiro[4.5]decane-8-carboxylic acid isopropylamide]
24 | 30 nM | CCc1ccc(N2CCC3(CCN(S(=O)(=O)c4ccccc4OC(F)(F)F)CC3)C2=O)cc1 [Example 54, 2-(4-Ethyl-phenyl)-8-(2-trifluoromethoxy-benzenesulfonyl)-2,8-diaza-spiro[4.5]decan-1-one]
25 | 20 nM | O=C1N(c2ccc(C(O)C(F)(F)F)cc2)CCC12CCN(S(=O)(=O)c1ccccc1C(F)(F)F)CC2 (stereo not drawn) [Example 166, 2-(4-(2,2,2-trifluoro-1-hydroxyethyl)phenyl)-8-(2-(trifluoromethyl)phenylsulfonyl)-2,8-diazaspiro[4.5]decan-1-one]
26 | 140 nM | O=C(NCCc1ccccc1)N1CCC2(CC1)CCN(c1ccc(OC(F)(F)F)cc1)C2=O [Example 264, 1-Oxo-2-(4-trifluoromethoxy-phenyl)-2,8-diaza-spiro[4.5]decane-8-carboxylic acid phenethyl-amide]
27 | 260 nM | O=C(N1CCC2(CC1)CCN(c1ccc(OC(F)(F)F)cc1)C2=O)N1Cc2ccccc2C1 [Example 277, 8-(1,3-Dihydro-isoindole-2-carbonyl)-2-(4-trifluoromethoxy-phenyl)-2,8-diaza-spiro[4.5]decan-1-one]
